# Assay results taken from ChEMBL document CHEMBL1137765, “Design and synthesis of novel chloramphenicol amine derivatives as potent aminopeptidase N (APN/CD13) inhibitors” (Bioorg Med Chem, 2009).
# Molecular target: T1, Aminopeptidase N (Sus scrofa, UniProt P15145)
# T1 sequence (P15145 whole entry): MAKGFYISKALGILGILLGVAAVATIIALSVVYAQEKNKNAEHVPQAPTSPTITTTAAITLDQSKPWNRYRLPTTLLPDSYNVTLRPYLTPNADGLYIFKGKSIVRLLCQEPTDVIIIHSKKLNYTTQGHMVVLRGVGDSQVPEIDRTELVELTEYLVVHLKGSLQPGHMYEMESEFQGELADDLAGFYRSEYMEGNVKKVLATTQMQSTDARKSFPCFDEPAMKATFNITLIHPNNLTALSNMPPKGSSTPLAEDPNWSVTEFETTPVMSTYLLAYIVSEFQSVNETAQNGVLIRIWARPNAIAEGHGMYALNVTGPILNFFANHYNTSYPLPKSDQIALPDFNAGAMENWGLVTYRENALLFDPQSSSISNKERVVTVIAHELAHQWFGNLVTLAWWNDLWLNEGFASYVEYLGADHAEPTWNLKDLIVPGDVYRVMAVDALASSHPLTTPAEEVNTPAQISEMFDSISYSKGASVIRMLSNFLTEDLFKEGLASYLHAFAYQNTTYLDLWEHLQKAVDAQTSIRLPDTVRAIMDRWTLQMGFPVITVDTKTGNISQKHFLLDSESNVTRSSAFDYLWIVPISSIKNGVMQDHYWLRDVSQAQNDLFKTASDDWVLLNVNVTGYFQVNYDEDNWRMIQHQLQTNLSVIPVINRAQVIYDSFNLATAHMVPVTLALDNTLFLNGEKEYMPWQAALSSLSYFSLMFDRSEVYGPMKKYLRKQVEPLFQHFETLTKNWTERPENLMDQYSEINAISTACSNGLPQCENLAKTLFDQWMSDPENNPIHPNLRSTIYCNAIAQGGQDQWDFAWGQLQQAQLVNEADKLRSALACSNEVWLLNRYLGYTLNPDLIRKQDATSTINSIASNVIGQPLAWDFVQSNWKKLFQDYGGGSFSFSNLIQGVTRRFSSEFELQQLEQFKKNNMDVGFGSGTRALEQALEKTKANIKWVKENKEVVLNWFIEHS
# Test: Inhibition of pig kidney microsomal Aminopeptidase N
# Conditions: not given
row,SMILES,IC50 [µM]
1,CC(C)[C@H](NC(=O)[C@H](N)[C@@H](O)c1ccc([N+](=O)[O-])cc1)C(=O)O,160
2,N[C@@H](C(=O)N[C@@H](Cc1ccccc1)C(=O)O)[C@@H](O)c1ccc([N+](=O)[O-])cc1,60.4
3,N[C@@H](C(=O)NCCc1ccccc1Cl)[C@@H](O)c1ccc([N+](=O)[O-])cc1,137
4,CCCCCNC(=O)[C@H](N)[C@@H](O)c1ccc([N+](=O)[O-])cc1,522
5,CCCNC(=O)[C@H](N)[C@@H](O)c1ccc([N+](=O)[O-])cc1,183
6,CC(C)NC(=O)[C@H](N)[C@@H](O)c1ccc([N+](=O)[O-])cc1,251
7,N[C@@H](C(=O)NC1CCCCC1)[C@@H](O)c1ccc([N+](=O)[O-])cc1,251
8,N[C@@H](C(=O)N[C@@H](Cc1ccccc1)C(=O)N[C@@H](Cc1ccccc1)C(=O)O)[C@@H](O)c1ccc([N+](=O)[O-])cc1,7.1
9,COc1ccc(CNC(=O)[C@H](N)[C@@H](O)c2ccc([N+](=O)[O-])cc2)cc1,145
10,CC(C)C[C@H](NC(=O)[C@H](N)[C@@H](O)c1ccc([N+](=O)[O-])cc1)C(=O)N[C@@H](Cc1ccccc1)C(=O)O,34.6
11,N[C@@H](C(=O)NCc1ccc(F)cc1)[C@@H](O)c1ccc([N+](=O)[O-])cc1,302
12,N[C@@H](C(=O)NCCc1ccc2c(c1)OCO2)[C@@H](O)c1ccc([N+](=O)[O-])cc1,90.3
13,CC(C)C[C@H](NC(=O)[C@H](N)[C@@H](O)c1ccc([N+](=O)[O-])cc1)C(=O)O,85.6
14,N[C@@H](C(=O)NCCCCCC(=O)O)[C@@H](O)c1ccc([N+](=O)[O-])cc1,1390
15,N[C@@H](C(=O)NCc1ccccc1)[C@@H](O)c1ccc([N+](=O)[O-])cc1,170
16,N[C@@H](C(=O)N[C@@H](Cc1ccccc1)C(=O)NO)[C@@H](O)c1ccc([N+](=O)[O-])cc1,31.3
17,N[C@@H](C(=O)O)[C@@H](O)c1ccc([N+](=O)[O-])cc1,140
18,CC(C)C[C@H](NC(=O)[C@H](N)[C@@H](O)c1ccc([N+](=O)[O-])cc1)C(=O)NO,54
19,N[C@@H](C(=O)NCCCC(=O)O)[C@@H](O)c1ccc([N+](=O)[O-])cc1,2890
20,CCCCNC(=O)[C@H](N)[C@@H](O)c1ccc([N+](=O)[O-])cc1,233
21,N[C@@H](C(=O)N[C@@H](Cc1cc2ccccc2[nH]1)C(=O)O)[C@@H](O)c1ccc([N+](=O)[O-])cc1,162
22,N[C@@H](C(=O)NCCc1ccccc1)[C@@H](O)c1ccc([N+](=O)[O-])cc1,106
23,N[C@@H](C(=O)N[C@H](CO)Cc1ccccc1)[C@@H](O)c1ccc([N+](=O)[O-])cc1,116
24,N[C@@H](C(=O)NCCc1ccc(O)cc1)[C@@H](O)c1ccc([N+](=O)[O-])cc1,51.4

# Tested on: HL-60
# Test: cells
# Conditions: Homo sapiens, HL-60, 48 h
# Description: Antiproliferative activity against human HL60 cells after 48 hrs by MTT assay
row,SMILES,IC50 [µM]
1,N[C@@H](C(=O)N[C@@H](Cc1ccccc1)C(=O)N[C@@H](Cc1ccccc1)C(=O)O)[C@@H](O)c1ccc([N+](=O)[O-])cc1,2210
2,CC(C)C[C@H](NC(=O)[C@H](N)[C@@H](O)c1ccc([N+](=O)[O-])cc1)C(=O)N[C@@H](Cc1ccccc1)C(=O)O,2020
3,CC(C)C[C@H](NC(=O)[C@@H](O)[C@H](N)Cc1ccccc1)C(=O)O [UBENIMEX],1650
